Measurements as given in the supplement of paper PMC11665569.

Assays:
MIAPACA2 [1] = test: relative viability (fraction of vehicle control); higher = more viable / less inhibited; conditions: treatment time: 5 days
Procedure: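 CCK-8 viability of MIAPACA2 cells with empty vector or constitutively active YAP S127A, treated with KRAS G12C inhibitors for 5 days, normalised to vehicle control.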

SW1573 = conditions: treatment time: 5 days
Procedure: (§1)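 CCK-8 viability of KRAS G12C-mutant cancer cell lines transfected with control, YAP/TAZ or TEAD1-4 siRNAs and treated with KRAS G12C inhibitors for 5 days; IC50 fitted in Prism after normalising absorbance at 450 nm to vehicle control.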

KYSE410 = conditions: treatment time: 5 days
Procedure: as §1

MIAPACA2 [2] = conditions: treatment time: 5 days
Procedure: as §1

H358 [3] = conditions: treatment time: 5 days
Procedure: as §1

H1792 = conditions: siRNA knockdown (Con = control): Con; treatment time: 5 days
Procedure: as §1

H1373 = conditions: treatment time: 5 days
Procedure: as §1

H2030 [4] = conditions: treatment time: 5 days
Procedure: as §1

H2030 [5] = test: relative viability (fraction of vehicle control); higher = more viable / less inhibited; conditions: treatment time: 5 days
Procedure: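 CCK-8 viability of H2030 cells transfected with control, YAP/TAZ or TEAD1-4 siRNAs and treated with KRAS G12C inhibitors for 5 days. Values are normalised to vehicle control.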

H358 [6] = test: as above; conditions: treatment time: 5 days
Procedure: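 CCK-8 viability of H358 cells with empty vector or constitutively active YAP S127A, treated with KRAS G12C inhibitors for 5 days. Absorbance at 450 nm normalised to vehicle control.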

C=CC(=O)N1CCN(c2nc(=O)n(-c3c(C)ccnc3C(C)C)c3nc(-c4c(O)cccc4F)c(F)cc23)[C@@H](C)C1 [AMG510]
Conditions	IC50 (cell viability, 5 days) [nM]	relative viability
H358 [3], siRNA knockdown (Con = control): Con	7.18	–
H358 [3], siRNA knockdown (Con = control): TEAD1234_si1	4.08	–
H358 [3], siRNA knockdown (Con = control): TEAD1234_si2	4.17	–
H358 [3], siRNA knockdown (Con = control): YAP_WWTR1_si1	4.08	–
H358 [3], siRNA knockdown (Con = control): YAP_WWTR1_si2	2.96	–
H358 [6], log10 concentration (uM): 0, ectopic expression: YAP S127A	–	0.42
H358 [6], log10 concentration (uM): 0, ectopic expression: empty vector (YAP experiment)	–	0.15
H358 [6], log10 concentration (uM): 1, ectopic expression: YAP S127A	–	0.46
H358 [6], log10 concentration (uM): 1, ectopic expression: empty vector (YAP experiment)	–	0.183
H358 [6], log10 concentration (uM): 1.301029996, ectopic expression: YAP S127A	–	0.327
H358 [6], log10 concentration (uM): 1.301029996, ectopic expression: empty vector (YAP experiment)	–	0.172
H358 [6], log10 concentration (uM): -1, ectopic expression: YAP S127A	–	0.453
H358 [6], log10 concentration (uM): -1, ectopic expression: empty vector (YAP experiment)	–	0.256
H358 [6], log10 concentration (uM): -1.30103, ectopic expression: YAP S127A	–	0.52
H358 [6], log10 concentration (uM): -1.30103, ectopic expression: empty vector (YAP experiment)	–	0.433
H358 [6], log10 concentration (uM): -2, ectopic expression: YAP S127A	–	0.727
H358 [6], log10 concentration (uM): -2, ectopic expression: empty vector (YAP experiment)	–	0.822
H358 [6], log10 concentration (uM): -2.30103, ectopic expression: YAP S127A	–	0.753
H358 [6], log10 concentration (uM): -2.30103, ectopic expression: empty vector (YAP experiment)	–	0.822
H358 [6], log10 concentration (uM): -3, ectopic expression: YAP S127A	–	0.96
H358 [6], log10 concentration (uM): -3, ectopic expression: empty vector (YAP experiment)	–	0.828
H358 [6], log10 concentration (uM): -4, ectopic expression: YAP S127A	–	0.873
H358 [6], log10 concentration (uM): -4, ectopic expression: empty vector (YAP experiment)	–	1.01
H1373, siRNA knockdown (Con = control): Con	30.7	–
H1373, siRNA knockdown (Con = control): YAP_WWTR1_si1	10.2	–
H1373, siRNA knockdown (Con = control): YAP_WWTR1_si2	4.31	–
H2030 [4], siRNA knockdown (Con = control): TEAD1234_si2	10.9	–
H2030 [4], siRNA knockdown (Con = control): YAP_WWTR1_si1	8.18	–
H2030 [5], log10 concentration (uM): 0, siRNA knockdown: TEAD1-4 siRNA 1	–	0.446
H2030 [5], log10 concentration (uM): 0, siRNA knockdown: TEAD1-4 siRNA 2	–	0.411
H2030 [5], log10 concentration (uM): 0, siRNA knockdown: YAP/TAZ siRNA 1	–	0.25
H2030 [5], log10 concentration (uM): 0, siRNA knockdown: YAP/TAZ siRNA 2	–	0.224
H2030 [5], log10 concentration (uM): 0, siRNA knockdown: negative control siRNA	–	0.714
H2030 [5], log10 concentration (uM): 1, siRNA knockdown: TEAD1-4 siRNA 1	–	0.345
H2030 [5], log10 concentration (uM): 1, siRNA knockdown: TEAD1-4 siRNA 2	–	0.325
H2030 [5], log10 concentration (uM): 1, siRNA knockdown: YAP/TAZ siRNA 1	–	0.257
H2030 [5], log10 concentration (uM): 1, siRNA knockdown: YAP/TAZ siRNA 2	–	0.283
H2030 [5], log10 concentration (uM): 1, siRNA knockdown: negative control siRNA	–	0.56
H2030 [5], log10 concentration (uM): 1.301029996, siRNA knockdown: TEAD1-4 siRNA 1	–	0.193
H2030 [5], log10 concentration (uM): 1.301029996, siRNA knockdown: TEAD1-4 siRNA 2	–	0.209
H2030 [5], log10 concentration (uM): 1.301029996, siRNA knockdown: YAP/TAZ siRNA 1	–	0.148
H2030 [5], log10 concentration (uM): 1.301029996, siRNA knockdown: YAP/TAZ siRNA 2	–	0.179
H2030 [5], log10 concentration (uM): 1.301029996, siRNA knockdown: negative control siRNA	–	0.403
H2030 [5], log10 concentration (uM): -1, siRNA knockdown: TEAD1-4 siRNA 1	–	0.504
H2030 [5], log10 concentration (uM): -1, siRNA knockdown: TEAD1-4 siRNA 2	–	0.556
H2030 [5], log10 concentration (uM): -1, siRNA knockdown: YAP/TAZ siRNA 1	–	0.181
H2030 [5], log10 concentration (uM): -1, siRNA knockdown: YAP/TAZ siRNA 2	–	0.181
H2030 [5], log10 concentration (uM): -1, siRNA knockdown: negative control siRNA	–	0.737
H2030 [5], log10 concentration (uM): -1.30103, siRNA knockdown: TEAD1-4 siRNA 1	–	0.514
H2030 [5], log10 concentration (uM): -1.30103, siRNA knockdown: TEAD1-4 siRNA 2	–	0.445
H2030 [5], log10 concentration (uM): -1.30103, siRNA knockdown: YAP/TAZ siRNA 1	–	0.207
H2030 [5], log10 concentration (uM): -1.30103, siRNA knockdown: YAP/TAZ siRNA 2	–	0.212
H2030 [5], log10 concentration (uM): -1.30103, siRNA knockdown: negative control siRNA	–	0.773
H2030 [5], log10 concentration (uM): -2, siRNA knockdown: TEAD1-4 siRNA 1	–	0.773
H2030 [5], log10 concentration (uM): -2, siRNA knockdown: TEAD1-4 siRNA 2	–	0.606
H2030 [5], log10 concentration (uM): -2, siRNA knockdown: YAP/TAZ siRNA 1	–	0.348
H2030 [5], log10 concentration (uM): -2, siRNA knockdown: YAP/TAZ siRNA 2	–	0.333
H2030 [5], log10 concentration (uM): -2, siRNA knockdown: negative control siRNA	–	0.883
H2030 [5], log10 concentration (uM): -2.30103, siRNA knockdown: TEAD1-4 siRNA 1	–	0.837
H2030 [5], log10 concentration (uM): -2.30103, siRNA knockdown: TEAD1-4 siRNA 2	–	0.67
H2030 [5], log10 concentration (uM): -2.30103, siRNA knockdown: YAP/TAZ siRNA 1	–	0.471
H2030 [5], log10 concentration (uM): -2.30103, siRNA knockdown: YAP/TAZ siRNA 2	–	0.457
H2030 [5], log10 concentration (uM): -2.30103, siRNA knockdown: negative control siRNA	–	0.909
H2030 [5], log10 concentration (uM): -3, siRNA knockdown: TEAD1-4 siRNA 1	–	0.939
H2030 [5], log10 concentration (uM): -3, siRNA knockdown: TEAD1-4 siRNA 2	–	0.875
H2030 [5], log10 concentration (uM): -3, siRNA knockdown: YAP/TAZ siRNA 1	–	0.812
H2030 [5], log10 concentration (uM): -3, siRNA knockdown: YAP/TAZ siRNA 2	–	0.688
H2030 [5], log10 concentration (uM): -3, siRNA knockdown: negative control siRNA	–	0.969
H2030 [5], log10 concentration (uM): -4, siRNA knockdown: TEAD1-4 siRNA 1	–	1.05
H2030 [5], log10 concentration (uM): -4, siRNA knockdown: TEAD1-4 siRNA 2	–	0.914
H2030 [5], log10 concentration (uM): -4, siRNA knockdown: YAP/TAZ siRNA 1	–	1.09
H2030 [5], log10 concentration (uM): -4, siRNA knockdown: YAP/TAZ siRNA 2	–	1.04
H2030 [5], log10 concentration (uM): -4, siRNA knockdown: negative control siRNA	–	0.955
KYSE410, siRNA knockdown (Con = control): Con	3540	–
KYSE410, siRNA knockdown (Con = control): TEAD1234_si1	853	–
KYSE410, siRNA knockdown (Con = control): YAP_WWTR1_si1	163	–
KYSE410, siRNA knockdown (Con = control): YAP_WWTR1_si2	33.5	–
MIAPACA2 [1], log10 concentration (uM): 0, ectopic expression: YAP S127A	–	0.773
MIAPACA2 [1], log10 concentration (uM): 0, ectopic expression: empty vector (YAP experiment)	–	0.0894
MIAPACA2 [1], log10 concentration (uM): 1, ectopic expression: YAP S127A	–	0.727
MIAPACA2 [1], log10 concentration (uM): 1, ectopic expression: empty vector (YAP experiment)	–	0.106
MIAPACA2 [1], log10 concentration (uM): 1.301029996, ectopic expression: YAP S127A	–	0.285
MIAPACA2 [1], log10 concentration (uM): 1.301029996, ectopic expression: empty vector (YAP experiment)	–	0.047
MIAPACA2 [1], log10 concentration (uM): -1, ectopic expression: YAP S127A	–	0.861
MIAPACA2 [1], log10 concentration (uM): -1, ectopic expression: empty vector (YAP experiment)	–	0.128
MIAPACA2 [1], log10 concentration (uM): -1.30103, ectopic expression: YAP S127A	–	0.91
MIAPACA2 [1], log10 concentration (uM): -1.30103, ectopic expression: empty vector (YAP experiment)	–	0.237
MIAPACA2 [1], log10 concentration (uM): -2, ectopic expression: YAP S127A	–	0.988
MIAPACA2 [1], log10 concentration (uM): -2, ectopic expression: empty vector (YAP experiment)	–	0.79
MIAPACA2 [1], log10 concentration (uM): -2.30103, ectopic expression: YAP S127A	–	1.03
MIAPACA2 [1], log10 concentration (uM): -2.30103, ectopic expression: empty vector (YAP experiment)	–	0.906
MIAPACA2 [1], log10 concentration (uM): -3, ectopic expression: YAP S127A	–	1.05
MIAPACA2 [1], log10 concentration (uM): -3, ectopic expression: empty vector (YAP experiment)	–	1.03
MIAPACA2 [1], log10 concentration (uM): -4, ectopic expression: YAP S127A	–	1
MIAPACA2 [1], log10 concentration (uM): -4, ectopic expression: empty vector (YAP experiment)	–	1
MIAPACA2 [2], siRNA knockdown (Con = control): Con	163	–
MIAPACA2 [2], siRNA knockdown (Con = control): TEAD1234_si1	66.1	–
MIAPACA2 [2], siRNA knockdown (Con = control): TEAD1234_si2	57.5	–
MIAPACA2 [2], siRNA knockdown (Con = control): YAP_WWTR1_si1	46.3	–
MIAPACA2 [2], siRNA knockdown (Con = control): YAP_WWTR1_si2	69.9	–
SW1573, siRNA knockdown (Con = control): Con	12300	–
SW1573, siRNA knockdown (Con = control): TEAD1234_si1	10.9	–
SW1573, siRNA knockdown (Con = control): TEAD1234_si2	4.11	–
SW1573, siRNA knockdown (Con = control): YAP_WWTR1_si1	2.87	–
SW1573, siRNA knockdown (Con = control): YAP_WWTR1_si2	3.42	–

Conditions	IC50 (cell viability, 5 days) [nM]
H1792	6330
